Experimental data from PubChem BioAssay (NCI).
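GI50: concentration for 50% inhibition of growth. The concentration for full growth arrest is given as TGI.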

How the values were obtained:
Assay in all cases: NCI anticancer screen, dose series, 384-well format
786-0 renal = system: 786-0 renal
A498 renal = system: A498 renal
A549 NSCLC = system: A549 NSCLC
ACHN renal = system: ACHN renal
BT-549 breast = system: BT-549 breast
CAKI-1 renal = system: CAKI-1 renal
CCRF-CEM leukemia = system: CCRF-CEM leukemia
COLO 205 colon = system: COLO 205 colon
DU-145 prostate = system: DU-145 prostate
EKVX NSCLC = system: EKVX NSCLC
HCC-2998 colon = system: HCC-2998 colon
HCT-116 colon = system: HCT-116 colon
HCT-15 colon = system: HCT-15 colon
HL-60(TB) leukemia = system: HL-60(TB) leukemia
HOP-62 NSCLC = system: HOP-62 NSCLC
HOP-92 NSCLC = system: HOP-92 NSCLC
HS 578T breast = system: HS 578T breast
HT29 colon = system: HT29 colon
IGROV1 ovarian = system: IGROV1 ovarian
K-562 leukemia = system: K-562 leukemia
KM12 colon = system: KM12 colon
LOX IMVI melanoma = system: LOX IMVI melanoma
M14 melanoma = system: M14 melanoma
MALME-3M melanoma = system: MALME-3M melanoma
MCF7 breast = system: MCF7 breast
MDA-MB-231 breast = system: MDA-MB-231 breast
MDA-MB-435 melanoma = system: MDA-MB-435 melanoma
MDA-MB-468 breast = system: MDA-MB-468 breast
MOLT-4 leukemia = system: MOLT-4 leukemia
NCI-H226 lung = system: NCI-H226 lung
NCI-H23 lung = system: NCI-H23 lung
NCI-H322M lung = system: NCI-H322M lung
NCI-H460 NSCLC = system: NCI-H460 NSCLC
NCI-H522 lung = system: NCI-H522 lung
NCI/ADR-RES ovarian = system: NCI/ADR-RES ovarian
OVCAR-3 ovarian = system: OVCAR-3 ovarian
OVCAR-4 ovarian = system: OVCAR-4 ovarian
OVCAR-5 ovarian = system: OVCAR-5 ovarian
OVCAR-8 ovarian = system: OVCAR-8 ovarian
PC-3 prostate = system: PC-3 prostate
RPMI-8226 leukemia = system: RPMI-8226 leukemia
RXF 393 renal = system: RXF 393 renal
SF-268 CNS = system: SF-268 CNS
SF-295 CNS = system: SF-295 CNS
SF-539 CNS = system: SF-539 CNS
SK-MEL-28 melanoma = system: SK-MEL-28 melanoma
SK-MEL-5 melanoma = system: SK-MEL-5 melanoma
SK-OV-3 ovarian = system: SK-OV-3 ovarian
SN12C renal = system: SN12C renal
SNB-19 CNS = system: SNB-19 CNS
SNB-75 CNS = system: SNB-75 CNS
SR leukemia = system: SR leukemia
SW-620 colon = system: SW-620 colon
T-47D breast = system: T-47D breast
TK-10 renal = system: TK-10 renal
U251 glioblastoma = system: U251 glioblastoma
UACC-257 melanoma = system: UACC-257 melanoma
UO-31 renal = system: UO-31 renal

SMILES: CN1CCC(CNc2ccc3ncc(-c4cccc(OC(F)(F)F)c4)n3n2)CC1
- GI50 ([…]-0 renal): 1660 nM
- TGI (786-0 renal): 3050 nM
- GI50 (A498 renal): 1420 nM
- TGI (A498 renal): 2730 nM
- GI50 (A549 NSCLC): 1720 nM
- TGI (A549 NSCLC): 3120 nM
- GI50 (ACHN renal): 1590 nM
- TGI (ACHN renal): 2960 nM
- GI50 (BT-549 breast): 1400 nM
- TGI (BT-549 breast): 2710 nM
- GI50 (CAKI-1 renal): 1380 nM
- TGI (CAKI-1 renal): 2710 nM
- GI50 (CCRF-CEM leukemia): 1800 nM
- TGI (CCRF-CEM leukemia): 3210 nM
- GI50 (COLO 205 colon): 1790 nM
- TGI (COLO 205 colon): 3190 nM
- GI50 (DU-145 prostate): 2050 nM
- TGI (DU-145 prostate): 4510 nM
- GI50 (EKVX NSCLC): 1480 nM
- TGI (EKVX NSCLC): 2900 nM
- GI50 (HCC-2998 colon): 1430 nM
- TGI (HCC-2998 colon): 2760 nM
- GI50 (HCT-116 colon): 1590 nM
- TGI (HCT-116 colon): 2980 nM
- GI50 (HCT-15 colon): 1580 nM
- TGI (HCT-15 colon): 2970 nM
- GI50 (HL-60(TB) leukemia): 1250 nM
- TGI (HL-60(TB) leukemia): 2530 nM
- GI50 (HOP-62 NSCLC): 1620 nM
- TGI (HOP-62 NSCLC): 3000 nM
- GI50 (HOP-92 NSCLC): 1650 nM
- TGI (HOP-92 NSCLC): 3020 nM
- GI50 (HS 578T breast): 1590 nM
- TGI (HS 578T breast): 2950 nM
- GI50 (HT29 colon): 1660 nM
- TGI (HT29 colon): 3090 nM
- GI50 (IGROV1 ovarian): 1550 nM
- TGI (IGROV1 ovarian): 2940 nM
- GI50 (K-562 leukemia): 1630 nM
- TGI (K-562 leukemia): 3040 nM
- GI50 (KM12 colon): 375 nM
- TGI (KM12 colon): 1420 nM
- GI50 (LOX IMVI melanoma): 1740 nM
- TGI (LOX IMVI melanoma): 3140 nM
- GI50 (M14 melanoma): 1490 nM
- TGI (M14 melanoma): 2820 nM
- GI50 (MALME-3M melanoma): 1560 nM
- TGI (MALME-3M melanoma): 2910 nM
- GI50 (MCF7 breast): 1450 nM
- TGI (MCF7 breast): 2800 nM
- GI50 (MDA-MB-231 breast): 1610 nM
- TGI (MDA-MB-231 breast): 2970 nM
- GI50 (MDA-MB-435 melanoma): 1710 nM
- TGI (MDA-MB-435 melanoma): 3100 nM
- GI50 (MDA-MB-468 breast): 1100 nM
- TGI (MDA-MB-468 breast): 2310 nM
- GI50 (MOLT-4 leukemia): 1310 nM
- TGI (MOLT-4 leukemia): 2590 nM
- GI50 (NCI-H226 lung): 1480 nM
- TGI (NCI-H226 lung): 2820 nM
- GI50 (NCI-H23 lung): 1540 nM
- TGI (NCI-H23 lung): 2940 nM
- GI50 (NCI-H322M lung): 1920 nM
- TGI (NCI-H322M lung): 3800 nM
- GI50 (NCI-H460 NSCLC): 1710 nM
- TGI (NCI-H460 NSCLC): 3150 nM
- GI50 (NCI-H522 lung): 1560 nM
- TGI (NCI-H522 lung): 2900 nM
- GI50 (NCI/ADR-RES ovarian): 1620 nM
- TGI (NCI/ADR-RES ovarian): 3020 nM
- GI50 (OVCAR-3 ovarian): 1620 nM
- TGI (OVCAR-3 ovarian): 3010 nM
- GI50 (OVCAR-4 ovarian): 1740 nM
- TGI (OVCAR-4 ovarian): 3190 nM
- GI50 (OVCAR-5 ovarian): 1610 nM
- TGI (OVCAR-5 ovarian): 3210 nM
- GI50 (OVCAR-8 ovarian): 1610 nM
- TGI (OVCAR-8 ovarian): 2990 nM
- GI50 (PC-3 prostate): 1260 nM
- TGI (PC-3 prostate): 2620 nM
- GI50 (RPMI-8226 leukemia): 1370 nM
- TGI (RPMI-8226 leukemia): 2670 nM
- GI50 (RXF 393 renal): 1350 nM
- TGI (RXF 393 renal): 2640 nM
- GI50 (SF-268 CNS): 1650 nM
- TGI (SF-268 CNS): 3040 nM
- GI50 (SF-295 CNS): 1450 nM
- TGI (SF-295 CNS): 2780 nM
- GI50 (SF-539 CNS): 1530 nM
- TGI (SF-539 CNS): 2870 nM
- GI50 (SK-MEL-28 melanoma): 1750 nM
- TGI (SK-MEL-28 melanoma): 3130 nM
- GI50 (SK-MEL-5 melanoma): 1120 nM
- TGI (SK-MEL-5 melanoma): 2330 nM
- GI50 (SK-OV-3 ovarian): 1670 nM
- TGI (SK-OV-3 ovarian): 3050 nM
- GI50 (SN12C renal): 1550 nM
- TGI (SN12C renal): 2910 nM
- GI50 (SNB-19 CNS): 1740 nM
- TGI (SNB-19 CNS): 3170 nM
- GI50 (SNB-75 CNS): 1500 nM
- TGI (SNB-75 CNS): 2860 nM
- GI50 (SR leukemia): 1250 nM
- TGI (SR leukemia): 2520 nM
- GI50 (SW-620 colon): 1600 nM
- TGI (SW-620 colon): 2980 nM
- GI50 (T-47D breast): 1770 nM
- TGI (T-47D breast): 3170 nM
- GI50 (TK-10 renal): 1700 nM
- TGI (TK-10 renal): 3110 nM
- GI50 (U251 glioblastoma): 1810 nM
- TGI (U251 glioblastoma): 3220 nM
- GI50 (UACC-257 melanoma): 1620 nM
- TGI (UACC-257 melanoma): 2980 nM
- GI50 (UO-31 renal): 1660 nM
- TGI (UO-31 renal): 3040 nM
